Tests used:
α1-adrenoceptor (aorta) = experiment: α-adrenoceptor antagonism, isolated rat aorta, pA2 vs norepinephrine; design: species or system Wistar rat; conditions: Schild plot, mean ± SEM of six to eight experiments
Description: Vascular α-adrenoceptor blocking activity was evaluated in the Wistar rat aorta preparation. Isolated rat aorta preparations were mounted in organ bath and suspended in Krebs solution at 37° C. […] or 75 mM KCl was added to the bath medium after a control concentration-response curve to norepinephrine had been obtained. The tissue was exposed to test compounds for 30 min before rechallenging with norepinephrine. Inhibitions were expressed as percentages of the maximum contraction obtained by the challenge of the tissues with norepinephrine. The 70 mM NaCl on 75 mM KCl solution may to replace with equimolar KCl, if necessary.
The methods published by Huang Y C. et. al. in J Cardiovasc Pharmacol.34, pp.10-20 (1999) and Drug Devel Res. 47, 77-89 (1999). Through referenced and modified method to evaluate, test compounds whether have α1-adrenergic and sertoninergic effect.
Isolated Wistar rat aorta preparations were mounted in organ bath and suspended in Krebs solution (NaCl, 118 mM, KCl, 4.8 mM; CaCl,2.5 mM; MgSO4,1.2 mM; K2PO4,1.2 Mm; […] Mm; glucose, 11 mM) at 37° C. under 1 g resting tension.
Upon balancing for 60 minutes, 10^−10-10^−4 M norepinephrine is administered directly from low concentration to high using 0.5 log unit to gradually increase until the maximum reaction is reached, and this act as the control unit. Then different concentrations of the synthetic testing compounds, 10^−7 M, 10^−6 M, or 10^−5M, are used, and upon 30 minutes of reaction, norepinephrine is used again to complete the cumulative dose. The EC50 value of blocking […] may be obtained from observation of the suppressing effects caused by different concentrations of the synthetic testing compound.
The equation is as follows: […]

[1] = biological target: T1, angiotensin converting enzyme (ACE) (Rattus norvegicus, UniProt P47820); experiment: ACE activity value on tissue (rat lung membrane, Hip-His-Leu, fluorometric); format: biochemical; conditions: mean of three samples
T1 construct: Centrifuged 250-300 mg lung tissue; from tissue; host or cells: rat lung membrane fraction
T1 sequence (P47820 36-1313): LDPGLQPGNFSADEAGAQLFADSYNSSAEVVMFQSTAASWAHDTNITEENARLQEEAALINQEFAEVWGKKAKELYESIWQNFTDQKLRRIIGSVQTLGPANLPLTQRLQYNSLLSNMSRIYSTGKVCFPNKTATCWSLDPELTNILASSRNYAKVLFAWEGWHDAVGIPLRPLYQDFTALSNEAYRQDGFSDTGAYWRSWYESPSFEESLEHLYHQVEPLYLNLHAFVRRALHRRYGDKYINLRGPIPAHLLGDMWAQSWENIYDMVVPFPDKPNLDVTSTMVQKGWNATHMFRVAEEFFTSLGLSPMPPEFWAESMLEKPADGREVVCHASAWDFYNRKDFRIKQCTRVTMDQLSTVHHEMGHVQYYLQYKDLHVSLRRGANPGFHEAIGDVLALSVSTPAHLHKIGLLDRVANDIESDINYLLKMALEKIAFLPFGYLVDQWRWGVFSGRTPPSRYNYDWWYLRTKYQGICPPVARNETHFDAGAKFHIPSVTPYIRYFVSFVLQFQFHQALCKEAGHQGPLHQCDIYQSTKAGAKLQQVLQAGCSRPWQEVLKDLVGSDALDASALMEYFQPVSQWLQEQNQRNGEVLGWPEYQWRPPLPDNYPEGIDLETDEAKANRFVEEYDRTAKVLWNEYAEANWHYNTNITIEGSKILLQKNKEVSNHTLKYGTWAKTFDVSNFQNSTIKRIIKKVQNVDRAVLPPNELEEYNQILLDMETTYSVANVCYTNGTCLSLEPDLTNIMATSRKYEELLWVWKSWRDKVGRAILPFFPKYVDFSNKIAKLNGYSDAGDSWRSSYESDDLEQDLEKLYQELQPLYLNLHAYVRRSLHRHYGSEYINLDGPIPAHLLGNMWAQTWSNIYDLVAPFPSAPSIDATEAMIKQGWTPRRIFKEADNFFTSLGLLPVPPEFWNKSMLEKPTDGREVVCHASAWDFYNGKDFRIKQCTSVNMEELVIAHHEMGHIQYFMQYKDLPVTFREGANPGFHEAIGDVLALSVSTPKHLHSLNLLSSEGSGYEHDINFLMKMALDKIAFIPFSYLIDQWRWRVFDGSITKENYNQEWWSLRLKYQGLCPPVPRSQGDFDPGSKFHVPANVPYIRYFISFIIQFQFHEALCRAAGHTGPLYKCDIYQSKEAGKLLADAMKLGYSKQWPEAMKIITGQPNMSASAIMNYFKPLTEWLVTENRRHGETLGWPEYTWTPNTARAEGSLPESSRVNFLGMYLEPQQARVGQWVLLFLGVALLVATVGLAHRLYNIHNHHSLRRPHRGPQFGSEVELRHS
Description: Centrifuged 250-300 mg lung tissue, 3 ml extracted liquid (10 mmol/L HEPES, 125 mmol/L NaCl, pH7.4) under 12000 g for 20 minutes at 4° C. by Teflon-glass homogenizer, the cell membrane was obtained. The 3 ml homogenized liquid was added into twice, before and after centrifuged. Then the Lowry's method was adopted to determine the protein content in the membrane. Mixing 15 minute of liquid and 30 mmol/L Hip-His-Leu solution at 37° C. Fluorometric was used to determine the Hippurate content. test compounds (10^−8M, 10^−7M, 10^−6M) dissolved in PBS normal saline and used as control group. Then ACE activity inhibition rate was determined.

CCOC(=O)C(CCc1ccc(OCC(O)CNCCOc2ccccc2OC)cc1)NC(C)C(=O)N1CCCC1C(=O)O (mixture of isomers) [compound 6, Labetapril]
α1 pA2 value, Aorta (α1-adrenoceptor (aorta)): 6.93
Inhibitory activity of ACE, In Rat lung ([1]; 10^−6M): 84%
Inhibitory activity of ACE, In Rat lung ([1]; 10^−7M): 72%
Inhibitory activity of ACE, In Rat lung ([1]; 10^−8M): 33%

CCOC(=O)C(CCc1ccccc1)NC(C)C(=O)N1CCCC1C(=O)OCc1ccc(OCC(O)CNC(C)(C)C)c(OC)c1 (stereo not shown) [compound 7, Vanynolpril]
Inhibitory activity of ACE, In Rat lung ([1]; 10^−6M): 81%
Inhibitory activity of ACE, In Rat lung ([1]; 10^−7M): 68%
Inhibitory activity of ACE, In Rat lung ([1]; 10^−8M): 31%

Reference: patent US20030040485A1, “alpha/beta-adrenoceptors blockers and angiotensin converting enzyme inhibitors derived from hydroxyphenyl carboxylic acid and alcohol” (priority 2001, published 2003)
